Source: US6569870B1, “Fluorinated quinolones as antimitotic and antitumor agents” (The University of North Carolina at Chapel Hill, priority 2000, dated 2003)
Where two headings read alike, the source gives them in different places.

Key:
tubulin [1] = test system: T1, tubulin; details: data from literature (Kuo 1993; Hamel 1996; Xia 1998); read-out: ITP IC50 ± SD; cited from earlier work
T1 construct: ITP IC50 ± SD; other: 10 μM tubulin; ICB (% inhib ± SD); effect on tubulin polymerization; other: relative to combretastatin A-4; Ha

[2] = test system: panel of approximately 60 human tumor cell lines; assay: NCI HTCL in vitro screen, mean over all cell lines; assay type: cell-based; details: mean over all 60 cell lines; for GI50: Homo sapiens, read-out: Mean log GI50 (converted)
Protocol: Compounds 1-7 and 13 were tested in National Cancer Institute's HTCL screen (M. Grever et al., Seminars Oncol. 1992, 19, 622-638; A. Monks et al., J. Natl. Cancer Inst. 1991, 83, 757-766). This assay involves determination of a test agent's effect on growth parameters against a panel of approximately 60 human tumor cell lines, mostly derived from solid tumors.

[3] = test system: K-562, leukemia cell line; assay: NCI 60 human tumor cell line (HTCL) in vitro screen, K562; assay type: cell-based; details: log concentration that reduced cell growth by 50%, read-out: Cytotoxicity log GI50, K562 (converted)
Excerpt: (§1) This assay involves determination of a test agent's effect on growth parameters against a panel of approximately 60 human tumor cell lines, mostly derived from solid tumors.

[4] = test system: RXF-393, renal cancer cell line; assay: NCI HTCL in vitro screen, RXF-393; assay type: cell-based, human; details: log concentration that reduced cell growth by 50%; for GI50: Homo sapiens, RXF 393, read-out: Cytotoxicity log GI50, RXF-393 (converted)
Excerpt: as §1

[5] = test system: SF-295 CNS tumor cell line; assay: NCI HTCL in vitro screen, SF-295; assay type: cell-based, human; details: for GI50: Homo sapiens, SF-295, log concentration that reduced cell growth by 50%, read-out: Cytotoxicity log GI50, SF-295 (converted)
Excerpt: as §1

[6] = test system: NCI-H226, non-small cell lung cancer cell line; assay: NCI HTCL in vitro screen, NCI-H226; assay type: cell-based, human; details: for GI50: Homo sapiens, NCI-H226, log concentration that reduced cell growth by 50%, read-out: Cytotoxicity log GI50, NCI-H226 (converted)
Excerpt: as §1

tubulin [7] = test system: T1, tubulin; assay: Inhibition of tubulin polymerization (ITP); assay type: biochemical; details: for IC50: 10 μM tubulin, read-out: ITP IC50 ± SD
[8] = test system: OVCAR-3, ovarian cancer cell line; assay: NCI HTCL in vitro screen, OVCAR-3; assay type: cell-based, human; details: for GI50: Homo sapiens, OVCAR-3, log concentration that reduced cell growth by 50%, read-out: Cytotoxicity log GI50, OVCAR-3 (converted)
Excerpt: as §1

[9] = test system: HCT-116, colon cancer cell line; assay: NCI HTCL in vitro screen, HCT116; assay type: cell-based, human; details: for GI50: Homo sapiens, HCT-116, log concentration that reduced cell growth by 50%, read-out: Cytotoxicity log GI50, HCT116 (converted)
Excerpt: as §1

tubulin [10] = test system: T1, tubulin; assay: Inhibition of [3H]colchicine binding to tubulin (ICB); details: for ICB (% inhib ± SD): 5 μM [3H]colchicine, 1 μM tubulin
[11] = test system: SF-268 CNS tumor cell line; assay: NCI HTCL in vitro screen, SF-268; assay type: cell-based; details: Homo sapiens, log concentration that reduced cell growth by 50%, read-out: Cytotoxicity log GI50, SF-268 (converted)
Excerpt: as §1

SK-Me15, melanoma = assay: NCI HTCL in vitro screen, SK-Me15; assay type: cell-based, human; details: log concentration that reduced cell growth by 50%; for GI50: Homo sapiens, read-out: Cytotoxicity log GI50, SK-Me15 (converted)
Excerpt: as §1

[12] = test system: OVCAR-3 ovarian cell line; details: mice bearing OVCAR-3 tumor; previously reported (background); cited from earlier work
tubulin [13] = details: previously reported (background); read-out: inhibition of tubulin polymerization IC50; cited from earlier work
[14] = test system: panel of approximately 60 human tumor cell lines; details: previously reported (L. Li et al. 1994); cited from earlier work

IC50 (tubulin [7])	melting point	Structure (SMILES)	GI50 [2]	GI50 [3]	GI50 [4]	GI50 [5]	GI50 [6]	GI50 [8]	GI50 [9]	GI50 [11]	GI50 (SK-Me15, melanoma)	further results
0.68 ± 0.02 µM	–	O=c1cc(-c2ccccc2F)[nH]c2cc3c(cc12)OCO3 [Compound 1, 2′-Fluoro-6,7-(methylenedioxy)-2-phenyl-4-quinolone]	0.135 µM	–	–	0.055 µM	0.447 µM	0.0813 µM	0.0603 µM	2.29 µM	0.0209 µM	prolonging the life span of mice bearing the tumor [12]: 130%; IC50 (tubulin [13]): 0.85 µM; ICB (% inhib ± SD) (tubulin [10]; 5 μM inhibitor): 39 ± 2 % inhib; average log G150 value in the HTCL screen [14]: −6.47
> 40 µM	93 to 94 °C	CCOC(=O)CCCOc1cc(-c2ccccc2F)nc2cc3c(cc12)OCO3 [Compound 4, 2′-Fluoro-6,7-(methylenedioxy)-2-phenyl-4-(O-ethyl 4′-butyrate)quinoline]	47.9 µM	–	–	–	–	–	> 100 µM	> 100 µM	57.5 µM	–
> 20 µM	> 300 °C	O=C(O)COc1cc(-c2ccccc2F)nc2cc3c(cc12)OCO3 [Compound 3, 2′-Fluoro-6,7-(methylenedioxy)-2-phenyl-4-(O-acetic acid)quinoline]	> 100 µM	> 100 µM	> 100 µM	> 100 µM	> 100 µM	> 100 µM	> 100 µM	> 100 µM	> 100 µM	–
> 40 µM	119 to 120 °C	CCOC(=O)COc1cc(-c2ccccc2F)nc2cc3c(cc12)OCO3 [Compound 2, 2′-Fluoro-6,7-(methylenedioxy)-2-phenyl-4-(O-ethylacetate)quinoline]	79.4 µM	38 µM	> 100 µM	> 100 µM	> 100 µM	–	72.4 µM	> 100 µM	72.4 µM	–

Continued, compound first:

Structure (SMILES)	IC50 (tubulin [7])	melting point	GI50 [2]	GI50 [3]	GI50 [4]	GI50 [5]	GI50 [6]	GI50 [8]	GI50 [9]	GI50 [11]	GI50 (SK-Me15, melanoma)	further results
O=c1[nH]c(C=Cc2ccccc2)nc2ccccc12 [Compound 18, 2-styrylquinazolin-4(3H)-one]	–	–	–	–	–	–	–	–	–	–	–	IC50 (tubulin [1]): 5 ± 0.6 µM
CC(C)(C)OC(=O)n1c(-c2ccccc2F)cc(=O)c2cc3c(cc21)OCO3 [Compound 7, N-Boc-2′-fluoro-6,7-(methylenedioxy)-2-phenyl-4-quinolone]	3.2 ± 1 µM	–	0.589 µM	> 100 µM	> 100 µM	0.117 µM	0.0251 µM	0.0324 µM	0.0447 µM	–	–	cytotoxicity relative to 1, SF-295 ([5]; relative to compound 1): less active than 1; fold more active than 1 against NCI-H226 ([6]; relative to compound 1): ~20 fold; effect on tubulin polymerization (tubulin [7]): moderate activity; cytotoxicity relative to 1, OVCAR-3 ([8]; relative to compound 1): equipotent with 1; cytotoxicity relative to 1, HCT-116 ([9]; relative to compound 1): equipotent with 1
Oc1cc(-c2ccccc2F)nc2ccc(N3CCCC3)cc12 [Compound 13]	0.46 µM	–	–	0.0324 µM	< 0.01 µM	–	–	–	–	0.0389 µM	< 0.01 µM	Mean log GI50 [2]: −7.62 M; Cytotoxicity log GI50, RXF-393 [4]: <−8.00 M; ICB (% inhib ± SD) (tubulin [10]; 1 μM inhibitor): 76 ± 5 % inhib; ICB (% inhib ± SD) (tubulin [10]; 5 μM inhibitor): 93 ± 1 % inhib; inhibition of [3H]colchicine binding to tubulin (tubulin [10]; relative to combretastatin A-4): nearly as active as the highly potent combretastatin A-4; Cytotoxicity log GI50, SK-Me15 (SK-Me15, melanoma): <−8.00 M
Fc1ccccc1-c1cc(=S)c2cc3c(cc2[nH]1)OCO3 [Compound 6, 2′-Fluoro-6,7-(methylenedioxy)-2-phenylquino-4-thione]	–	–	15.5 µM	56.2 µM	29.5 µM	11.7 µM	16.6 µM	21.4 µM	5.5 µM	20 µM	4.07 µM	–
O=C(O)CCCOc1cc(-c2ccccc2F)nc2cc3c(cc12)OCO3 [Compound 5, 2′-Fluoro-6,7-(methylenedioxy)-2-phenyl-4-(O-ethyl 4′-butylacetic acid)quinoline]	12 ± 3 µM	> 300 °C	4.68 µM	–	–	–	–	–	–	–	–	–
